From patent US8426408B2, “Pyrimidine inhibitors of kinases” (AbbVie Inc., priority 2009, dated 2013)

How the values were obtained:
Format in all cases: biochemical
KDR = KDR (Homo sapiens, UniProt P35968); experiment: KDR HTRF in vitro kinase assay; parameters: purified enzyme (His6-KDR 789-1354, MW 63 kD); His6 (N); settings: 1 mM ATP; read-out: KDR enzyme inhibition data (Ki)
Outline: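 His6-KDR 789-1354 (7 ng/well) with 0.5 μM biotinylated peptide substrate and 1 mM ATP in HEPES pH 7.1, MgCl2/MnCl2, 60 min at room temperature. EDTA-quenched, detected by streptavidin-XL-665 plus Eu-kryptate anti-phosphotyrosine HTRF after 3 h; IC50 from 620/665 nm ratio.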

Aurora A = target: T1, Aurora A (Homo sapiens, UniProt O14965); experiment: Aurora A enzyme inhibition (time-resolved fluorescence, STK substrate-2); settings: 1 mM ATP
T1 sequence (O14965 1-403): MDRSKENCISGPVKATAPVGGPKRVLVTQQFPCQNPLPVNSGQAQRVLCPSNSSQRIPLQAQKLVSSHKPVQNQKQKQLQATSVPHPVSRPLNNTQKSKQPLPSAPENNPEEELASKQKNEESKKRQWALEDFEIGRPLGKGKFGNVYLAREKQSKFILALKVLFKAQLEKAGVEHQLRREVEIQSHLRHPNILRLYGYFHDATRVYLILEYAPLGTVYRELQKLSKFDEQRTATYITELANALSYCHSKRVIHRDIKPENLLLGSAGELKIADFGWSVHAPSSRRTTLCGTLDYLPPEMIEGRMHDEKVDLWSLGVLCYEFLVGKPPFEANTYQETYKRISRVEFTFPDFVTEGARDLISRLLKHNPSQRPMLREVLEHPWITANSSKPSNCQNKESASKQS
Outline: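 Active enzyme incubated 1 h with biotinylated STK substrate-2, 1 mM ATP and inhibitor in Hepes pH 7.4 with MgCl2, orthovanadate and Triton X-100. EDTA stop; phosphopeptide detected by Eu-cryptate anti-phospho-STK/SA-XL665 TR-FRET (665/615 nm ratio); IC50 by exponential fit.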

Aurora B = target: T2, Aurora B (Homo sapiens, UniProt Q96GD4); experiment: Aurora B enzyme inhibition (time-resolved fluorescence, histone H3 peptide); settings: 1 mM ATP
T2 construct: Active Aurora B enzyme (recombinant residues 1-344)
Outline: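 Recombinant Aurora B (residues 1-344) with GST-INCENP phosphorylated biotinylated histone H3 (1-21) peptide at 1 mM ATP in HEPES pH 7.4 with MgCl2, orthovanadate and Triton X-100 for 1 h. After EDTA stop, the phosphopeptide was detected by TR-FRET (Eu-cryptate anti-phospho-H3 / SA-APC, 665/615 nm ratio). IC50 from an exponential fit.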

Sequence of KDR (P35968 789-1354): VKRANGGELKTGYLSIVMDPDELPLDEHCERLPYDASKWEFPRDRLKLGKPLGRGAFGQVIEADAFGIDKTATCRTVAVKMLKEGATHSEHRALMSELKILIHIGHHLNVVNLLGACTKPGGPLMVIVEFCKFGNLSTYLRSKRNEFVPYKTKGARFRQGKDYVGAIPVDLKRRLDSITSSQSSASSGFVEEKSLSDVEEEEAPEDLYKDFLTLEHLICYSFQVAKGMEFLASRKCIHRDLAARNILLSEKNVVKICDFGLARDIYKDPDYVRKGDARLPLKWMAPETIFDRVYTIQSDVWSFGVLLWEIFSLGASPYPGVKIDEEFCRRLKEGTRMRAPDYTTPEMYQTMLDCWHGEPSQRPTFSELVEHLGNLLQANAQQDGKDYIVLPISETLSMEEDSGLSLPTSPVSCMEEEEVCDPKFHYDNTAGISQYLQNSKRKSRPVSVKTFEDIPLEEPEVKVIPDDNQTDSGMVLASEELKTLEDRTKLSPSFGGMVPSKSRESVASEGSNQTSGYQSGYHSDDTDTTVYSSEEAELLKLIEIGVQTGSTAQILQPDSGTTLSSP
T2 sequence (Q96GD4 whole entry, the tested form may be a part): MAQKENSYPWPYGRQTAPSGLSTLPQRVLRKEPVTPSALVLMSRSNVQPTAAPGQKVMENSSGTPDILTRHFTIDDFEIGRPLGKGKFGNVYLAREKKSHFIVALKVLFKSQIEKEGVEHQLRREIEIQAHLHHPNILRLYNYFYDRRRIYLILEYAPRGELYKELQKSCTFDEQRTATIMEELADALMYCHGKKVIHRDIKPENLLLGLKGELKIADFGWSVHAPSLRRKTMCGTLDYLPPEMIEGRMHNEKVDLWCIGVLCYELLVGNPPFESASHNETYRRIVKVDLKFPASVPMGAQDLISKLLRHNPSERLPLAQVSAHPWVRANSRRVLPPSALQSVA
T2 sequence (Q9NQS7 826-918 partner limits assumed): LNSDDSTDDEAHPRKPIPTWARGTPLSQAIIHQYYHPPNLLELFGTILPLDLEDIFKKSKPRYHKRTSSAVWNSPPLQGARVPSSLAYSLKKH

Row | Compound | Ki (KDR) [nM] | Ki (Aurora A) [nM] | Ki (Aurora B) [nM]
1 | CCn1cc(Nc2ncc(C(F)(F)F)c(N[C@@H]3[C@H]4CC[C@H](C4)[C@@H]3C(N)=O)n2)cn1 [Example 80, (1R,2S,3R,4S)-3-{[2-[(1-ethyl-1H-pyrazol-4-yl)amino]-5-(trifluoromethyl)pyrimidin-4-yl]amino}bicyclo[2.2.1]heptane-2-carboxamide] | < 100 | < 100 | < 100
2 | NC(=O)[C@@H]1[C@H](Nc2nc(Nc3cnn([C@@H]4CCCNC4)c3)ncc2Cl)[C@H]2C=C[C@@H]1C2 [Example 84, (1S,2S,3R,4R)-3-{[5-chloro-2-({1-[(3R)-piperidin-3-yl]-1H-pyrazol-4-yl}amino)pyrimidin-4-yl]amino}bicyclo[2.2.1]hept-5-ene-2-carboxamide] | < 100 | < 100 | < 100
3 | (1S,2S,3R,4R)-3-[(5-chloro-2-{[1-(1-methylpiperidin-4-yl)-1H-pyrazol-4-yl]amino}pyrimidin-4-yl)amino]bicyclo[2.2.1]hept-5-ene-2-carboxamide and (1R,2R,3S,4S)-3-[(5-chloro-2-{[1-(1-methylpiperidin-4-yl)-1H-pyrazol-4-yl]amino}pyrimidin-4-yl)amino]bicyclo[2.2.1]hept-5-ene-2-carboxamide [Example 40] | < 100 | < 100 | < 100
4 | (1S,2S,3R,4R)-3-[(5-chloro-2-{[1-(2-morpholin-4-ylethyl)-1H-pyrazol-4-yl]amino}pyrimidin-4-yl)amino]bicyclo[2.2.1]hept-5-ene-2-carboxamide and (1R,2R,3S,4S)-3-[(5-chloro-2-{[1-(2-morpholin-4-ylethyl)-1H-pyrazol-4-yl]amino}pyrimidin-4-yl)amino]bicyclo[2.2.1]hept-5-ene-2-carboxamide [Example 37] | < 100 | < 100 | < 100
5 | (1S,2S,3R,4R)-3-{[5-chloro-2-({1-[2-(4-methylpiperazin-1-yl)ethyl]-1H-pyrazol-4-yl}amino)pyrimidin-4-yl]amino}bicyclo[2.2.1]hept-5-ene-2-carboxamide and (1R,2R,3S,4S)-3-{[5-chloro-2-({1-[2-(4-methylpiperazin-1-yl)ethyl]-1H-pyrazol-4-yl}amino)pyrimidin-4-yl]amino}bicyclo[2.2.1]hept-5-ene-2-carboxamide [Example 46] | < 100 | < 100 | < 100
6 | isopropyl{4-[(4-{[(1R,2R,3S,4S)-3-(aminocarbonyl)bicyclo[2.2.1]hept-5-ene-2-yl]amino}-5-fluoropyrimidin-2-yl)amino]-1H-pyrazol-1-yl}acetate and isopropyl{4-[(4-{[(1S,2S,3R,4R)-3-(aminocarbonyl)bicyclo[2.2.1]hept-5-ene-2-yl]amino}-5-fluoropyrimidin-2-yl)amino]-1H-pyrazol-1-yl}acetate [Example 6] | 100 to 1000 | 100 to 1000 | 100 to 1000

Further lines, results first:

Row | Ki (KDR) [nM] | Ki (Aurora A) [nM] | Ki (Aurora B) [nM] | Compound
7 | < 100 | < 100 | < 100 | NC(=O)[C@@H]1[C@H](Nc2nc(Nc3cnn(C4CNC4)c3)ncc2Cl)[C@H]2C=C[C@@H]1C2 [Example 81, (1S,2S,3R,4R)-3-({2-[(1-azetidin-3-yl-1H-pyrazol-4-yl)amino]-5-chloropyrimidin-4-yl}amino)bicyclo[2.2.1]hept-5-ene-2-carboxamide]
8 | < 100 | < 100 | < 100 | NC(=O)[C@@H]1[C@H](Nc2nc(Nc3cnn(C4CCNCC4)c3)ncc2Cl)[C@H]2C=C[C@@H]1C2 [Example 82, (1S,2S,3R,4R)-3-({5-chloro-2-[(1-piperidin-4-yl-1H-pyrazol-4-yl)amino]pyrimidin-4-yl}amino)bicyclo[2.2.1]hept-5-ene-2-carboxamide]
9 | < 100 | < 100 | < 100 | NC(=O)[C@@H]1[C@H](Nc2nc(Nc3cnn([C@H]4CCCNC4)c3)ncc2Cl)[C@H]2C=C[C@@H]1C2 [Example 83, (1S,2S,3R,4R)-3-{[5-chloro-2-({1-[(3S)-piperidin-3-yl]-1H-pyrazol-4-yl}amino)pyrimidin-4-yl]amino}bicyclo[2.2.1]hept-5-ene-2-carboxamide]
10 | < 100 | < 100 | < 100 | CC(=O)NCC(=O)N1CCC(n2cc(Nc3ncc(Cl)c(N[C@H]4[C@@H](C(N)=O)[C@@H]5C=C[C@H]4C5)n3)cn2)CC1 [Example 85, (1S,2S,3R,4R)-3-{[2-({1-[1-(N-acetylglycyl)piperidin-4-yl]-1H-pyrazol-4-yl}amino)-5-chloropyrimidin-4-yl]amino}bicyclo[2.2.1]hept-5-ene-2-carboxamide]
11 | < 100 | < 100 | < 100 | (1S,2S,3R,4R)—N-cyclopropyl-3-{[2-[(1-methyl-1H-pyrazol-4-yl)amino]-5-(trifluoromethyl)pyrimidin-4-yl]amino}bicyclo[2.2.1]hept-5-ene-2-carboxamide and (1R,2R,3S,4S)—N-cyclopropyl-3-{[2-[(1-methyl-1H-pyrazol-4-yl)amino]-5-(trifluoromethyl)pyrimidin-4-yl]amino}bicyclo[2.2.1]hept-5-ene-2-carboxamide [Example 70]
